According to ChEMBL document CHEMBL5357056, “Precursor-Directed Biosynthesis of Antialgal Fluorinated Bacillamide Derivatives in Bacillus atrophaeus” (J Nat Prod, 2024):

Key:
[1] = Anti-phytoplankton activity against Skeletonema grethae assessed as reduction in chlorophyll a level measured after 72 hrs by fluorescence based analysis; assay type: functional, organism-based
Karenia brevis = experiment: Anti-phytoplankton activity against Karenia brevis assessed as change in chlorophyll a level measured after 72 hrs by fluorescence based analysis; assay type: functional, organism-based

In the case of `N#Cc1c(-c2ccc(Cl)cc2)[nH]c(C(F)(F)F)c1Br`, the IC50 [1] is reported as 13.1 µM and the IC50 (Karenia brevis) is reported as 1.35 µM.
`CC(=O)NCCc1c[nH]c2ccccc12` gave an IC50 [1] greater than 200 µM and an IC50 (Karenia brevis) greater than 200 µM.
`C[C@@H]1C[C@@H]([C@H](O)CC2CC(=O)NC(=O)C2)C(=O)[C@@H](C)C1` [CYCLOHEXIMIDE] gave an IC50 [1] of 0.5 µM and an IC50 (Karenia brevis) of 0.55 µM.
Work on `CC(=O)NCCc1c[nH]c2cccc(F)c12` yielded an IC50 [1] greater than 200 µM and an IC50 (Karenia brevis) greater than 200 µM.
`CC(=O)N[C@H](C)c1nc(C(=O)NCCc2c[nH]c3ccc(F)cc23)cs1` gave an IC50 [1] greater than 200 µM and an IC50 (Karenia brevis) greater than 200 µM.
`CC(=O)c1nc(C(=O)NCCc2c[nH]c3cc(F)ccc23)cs1` showed an IC50 [1] greater than 200 µM and an IC50 (Karenia brevis) of 107 µM.
Work on `CC(=O)N[C@H](C)c1nc(C(=O)NCCc2c[nH]c3cccc(F)c23)cs1` yielded an IC50 [1] greater than 200 µM and an IC50 (Karenia brevis) greater than 200 µM.
`CC(=O)N[C@H](C)c1nc(C(=O)NCCc2c[nH]c3ccccc23)cs1` [BACILLAMIDE C] showed an IC50 [1] greater than 200 µM and an IC50 (Karenia brevis) greater than 200 µM.
`CC(=O)c1nc(C(=O)NCCc2c[nH]c3cccc(F)c23)cs1` gave an IC50 [1] greater than 200 µM and an IC50 (Karenia brevis) greater than 200 µM.
In the case of `CC(=O)N[C@H](C)c1nc(C(=O)NCCc2c[nH]c3cc(F)ccc23)cs1`, the IC50 [1] is reported as greater than 200 µM and the IC50 (Karenia brevis) is reported as 28.7 µM.
With `CC(=O)c1nc(C(=O)NCCc2c[nH]c3ccc(F)cc23)cs1` the IC50 [1] was greater than 200 µM and the IC50 (Karenia brevis) was 186 µM.
`CC(=O)c1nc(C(=O)NCCc2c[nH]c3ccccc23)cs1` [BACILLAMIDE A] showed an IC50 [1] greater than 200 µM and an IC50 (Karenia brevis) greater than 200 µM.
